29 compounds from patent US11760754B2, “Heterocyclic mitochondrial activity inhibitors and uses thereof” (UNIVERSITÉ DE MONTRÉAL, priority 2017, dated 2023) can be followed below.

Like-named read-outs stand apart in the source and are kept apart here. Where only a bound is given, the exact number is not on record here.

For one test, the system named is MLL-AF9 cells. Briefly: MLL-AF9 leukemia cell growth inhibition, dose-response viability assay (CellTiterGlo). In kind it is cell-based, murine. The following applies: Mus musculus, read-out: MLL-AF9 EC50. An outline of the steps: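 Murine MLL-AF9 leukemia cells (female, MSCV MLL-AF9 IRES Puro transduced) were treated with serial compound dilutions from 10 μM to 0.5 nM in duplicates or quadruplicates. Viability read by CellTiterGlo dose-response.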
In general terms: Cellular ATP, detected with luciferase, serves as a proxy for viable cell number.

For the next test, the system named is OCI-AML3 cells. Briefly: OCI-AML3 cell growth inhibition, dose-response viability assay (CellTiterGlo). The note with it: Homo sapiens, OCI-AML-3, 144 h, read-out: AML-3 EC50. In kind it is cell-based. An outline of the steps: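 OCI-AML3 cells seeded, then exposed to compound in serial dilutions from 10 μM to 0.5 nM, in duplicate or quadruplicate. Viability read by CellTiter-Glo.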

With `OC(CCCn1ccnn1)c1ccc(OCc2coc(/C=C/c3ccc(Br)cc3F)n2)cc1` (stereo not shown) [Compound 21, (E)-1-(4-((2-(4-bromo-2-fluorostyryl)oxazol-4-yl)methoxy)phenyl)-4-(1H-1,2,3-triazol-1-yl)butan-1-ol], the EC50 in the test on MLL-AF9 cells (MLL-AF9, 120 h) lay within 50 to 100 nM; with OCI-AML3 cells, 100 to 500 nM.
Consider `[N-]=[N+]=Nc1ccc(/C=C/c2nc(COc3ccc(CCCCn4ccnn4)cc3)co2)c(F)c1` [Compound 67, (E)-4-((4-(4-(1H-1,2,3-triazol-1-yl)butyl)phenoxy)methyl)-2-(4-azido-2-fluorostyryl)oxazole], for which the 50% effective concentration (EC50) was 100 to 500 nM in the test on MLL-AF9 cells (MLL-AF9, 120 h) and 100 to 500 nM in the test on OCI-AML3 cells.
`COCCNC(=O)OCCc1cn(CCCCc2ccc(OCc3coc(/C=C/c4ccc(C(F)(F)F)cc4F)n3)cc2)nn1` [Compound 96, (E)-2-(1-(4-(4-((2-(2-fluoro-4-(trifluoromethyl)styryl)oxazol-4-yl)methoxy)phenyl)butyl)-1H-1,2,3-triazol-4-yl)ethyl (2-methoxyethyl)carbamate]: the EC50 with MLL-AF9 cells (MLL-AF9, 120 h) lay in the range of 100 to 500 nM; in the test on OCI-AML3 cells, 500 to 1000 nM.
`O=C(Nc1ccc(CCCCn2ccnn2)cc1)c1coc(/C=C/c2ccc(C(F)(F)F)cc2)n1` [Compound 30, (E)-N-(4-(4-(1H-1,2,3-triazol-1-yl)butyl)phenyl)-2-(4-(trifluoromethyl)styryl)oxazole-4-carboxamide]: the concentration for a half-maximal effect (EC50) in the test with MLL-AF9 cells (MLL-AF9, 120 h) is 100 to 500 nM; in the test with OCI-AML3 cells, 500 to 1000 nM.
On to `O=[N+]([O-])c1ccccc1/C=C/c1nc(COc2ccc(CCCCn3ccnn3)cc2)co1` [Compound 42, (E)-4-((4-(4-(1H-1,2,3-triazol-1-yl)butyl)phenoxy)methyl)-2-(2-nitrostyryl)oxazole], for which the EC50 with MLL-AF9 cells (MLL-AF9, 120 h) lay within 100 to 500 nM; in the test with OCI-AML3 cells, 500 to 1000 nM.
For `FC(F)(F)c1ccc(/C=C/c2cccc(COc3ccc(CCCCn4ccnn4)cc3)c2)cc1` [Compound 56, (E)-1-(4-(4-((3-(4-(trifluoromethyl)styryl)benzyl)oxy)phenyl)butyl)-1H-1,2,3-triazole], the EC50 in the test with MLL-AF9 cells (MLL-AF9, 120 h) fell in the range of 1000 to 10000 nM; with OCI-AML3 cells, 1000 to 10000 nM.
In the case of `O=[N+]([O-])c1ccc(/C=C/c2nc(COc3ccc(CCCCn4ccnn4)cc3)co2)cc1` [Compound 40, (E)-4-((4-(4-(1H-1,2,3-triazol-1-yl)butyl)phenoxy)methyl)-2-(4-nitrostyryl)oxazole], the EC50 in the test on MLL-AF9 cells (MLL-AF9, 120 h) was in the range of 100 to 500 nM; with OCI-AML3 cells it was 50 to 100 nM.
Turning to `O=C(Nc1ccc(C(F)(F)F)cc1[N+](=O)[O-])c1coc(COc2ccc(CCCCn3ccnn3)cc2)n1` [Compound 78, 2-((4-(4-(1H-1,2,3-triazol-1-yl)butyl)phenoxy)methyl)-N-(2-nitro-4-(trifluoromethyl)phenyl)oxazole-4-carboxamide], the EC50 in the test on MLL-AF9 cells (MLL-AF9, 120 h) was greater than 10000 nM; with OCI-AML3 cells it was 1000 to 10000 nM.
For the compound `Fc1ccc(/C=C/c2nc(COc3ccc(CCCCn4ccnn4)cc3)co2)c(Cl)c1` [Compound 117, (E)-4-((4-(4-(1H-1,2,3-triazol-1-yl)butyl)phenoxy)methyl)-2-(2-chloro-4-fluorostyryl)oxazole], the concentration giving a half-maximal response (EC50) in the test with MLL-AF9 cells (MLL-AF9, 120 h) fell in the range of 100 to 500 nM; in the test with OCI-AML3 cells it was 100 to 500 nM.
`Fc1cc(C(F)(F)F)ccc1/C=C/c1nc(COc2ccc(CCCCn3ccnn3)cc2)co1` [Compound 48, (E)-4-((4-(4-(1H-1,2,3-triazol-1-yl)butyl)phenoxy)methyl)-2-(2-fluoro-4-(trifluoromethyl)styryl)oxazole]: the concentration giving a half-maximal response (EC50) in the test on MLL-AF9 cells (MLL-AF9, 120 h) was less than 50 nM; with OCI-AML3 cells, 50 to 100 nM.
The corresponding values for `Clc1ccc(/C=C/c2nc(COc3ccc(CCCCn4ccnn4)cc3)co2)c(Cl)c1` [Compound 119, (E)-4-((4-(4-(1H-1,2,3-triazol-1-yl)butyl)phenoxy)methyl)-2-(2,4-dichlorostyryl)oxazole] are 100 to 500 nM and 100 to 500 nM.
Turning to `Fc1cc(C(F)(F)F)ccc1/C=C/c1nc(CSc2ccc(CCCCn3ccnn3)cc2)co1` [Compound 146, (E)-4-(((4-(4-(1H-1,2,3-triazol-1-yl)butyl)phenyl)thio)methyl)-2-(2-fluoro-4-(trifluoromethyl)styryl)oxazole], the 50% effective concentration (EC50) in the test on MLL-AF9 cells (MLL-AF9, 120 h) lay in the range of 100 to 500 nM; in the test with OCI-AML3 cells, 1000 to 10000 nM.
In the case of `Oc1ccc(/C=C/c2nc(COc3ccc(CCCCn4ccnn4)cc3)co2)cc1` [Compound 62, (E)-4-(2-(4-((4-(4-(1H-1,2,3-triazol-1-yl)butyl)phenoxy)methyl)oxazol-2-yl)vinyl)phenol], the EC50 was in the range of 100 to 500 nM in the test with MLL-AF9 cells (MLL-AF9, 120 h) and 100 to 500 nM in the test with OCI-AML3 cells.
For the compound `Fc1cccc(F)c1/C=C/c1nc(COc2ccc(CCCCn3ccnn3)cc2)co1` [Compound 46, (E)-4-((4-(4-(1H-1,2,3-triazol-1-yl)butyl)phenoxy)methyl)-2-(2,6-difluorostyryl)oxazole], the 50% effective concentration (EC50) fell in the range of 1000 to 10000 nM with MLL-AF9 cells (MLL-AF9, 120 h) and 500 to 1000 nM with OCI-AML3 cells.
As to `Fc1cc(C(F)(F)F)ccc1/C=C/c1nc(COc2ccc(CCCCn3cncn3)cc2)co1` [Compound 88], the EC50 is 500 to 1000 nM in the test on MLL-AF9 cells (MLL-AF9, 120 h) and 1000 to 10000 nM in the test with OCI-AML3 cells.
For `Fc1ncccc1/C=C/c1nc(COc2ccc(CCCCn3ccnn3)cc2)co1` [Compound 83, (E)-4-((4-(4-(1H-1,2,3-triazol-1-yl)butyl)phenoxy)methyl)-2-(2-(2-fluoropyridin-3-yl)vinyl)oxazole], the EC50 with MLL-AF9 cells (MLL-AF9, 120 h) fell in the range of 100 to 500 nM; with OCI-AML3 cells it was 500 to 1000 nM.
Turning to `C(=C\c1nc(COc2ccc(CCCCn3ccnn3)cc2)co1)/c1ccccc1` [Compound 47, (E)-4-((4-(4-(1H-1,2,3-triazol-1-yl)butyl)phenoxy)methyl)-2-styryloxazole], the EC50 is 100 to 500 nM in the test with MLL-AF9 cells (MLL-AF9, 120 h) and 100 to 500 nM in the test on OCI-AML3 cells.
For the compound `Cc1oc(/C=C/c2ccc(C(F)(F)F)cc2F)nc1COc1ccc(CCCCn2ccnn2)cc1` [Compound 145, (E)-4-((4-(4-(1H-1,2,3-triazol-1-yl)butyl)phenoxy)methyl)-2-(2-fluoro-4-(trifluoromethyl)styryl)-5-methyloxazole], the EC50 lay within 100 to 500 nM with MLL-AF9 cells (MLL-AF9, 120 h) and 500 to 1000 nM with OCI-AML3 cells.
For the compound `FC(F)(F)c1ccc(/C=C/c2nc(COc3ccc(CCCCn4ccnn4)cc3)co2)cc1` [Compound 1, (E)-4-((4-(4-(1H-1,2,3-triazol-1-yl)butyl)phenoxy)methyl-2-(4-trifluoromethyl)styryl)oxazole, reference compound], the EC50 with MLL-AF9 cells (120 h, MLL-AF9 cells, 5 days of culture, CellTiterGlo) lay in the range of 50 to 100 nM; with OCI-AML3 cells (OCI-AML3 cells, 6 days of culture, CellTiterGlo), 100 to 500 nM.
For `N#Cc1ccc(/C=C/c2nc(COc3ccc(CCCCn4ccnn4)cc3)co2)cc1` [Compound 37, (E)-4-(2-(4-((4-(4-(1H-1,2,3-triazol-1-yl)butyl)phenoxy)methyl)oxazol-2-yl)vinyl)benzonitrile], the EC50 was in the range of 100 to 500 nM with MLL-AF9 cells (MLL-AF9, 120 h) and 100 to 500 nM with OCI-AML3 cells.
With `Fc1cc(C(F)(F)F)ccc1/C=C/c1nc(COc2ccc(CCCCc3ncccn3)cc2)co1` [Compound 139, (E)-2-(2-fluoro-4-(trifluoromethyl)styryl)-4-((4-(4-(pyrimidin-2-yl)butyl)phenoxy)methyl)oxazole], the EC50 was 1000 to 10000 nM with MLL-AF9 cells (MLL-AF9, 120 h) and greater than 10000 nM with OCI-AML3 cells.
In the case of `CS(=O)(=O)c1ccc(/C=C/c2nc(COc3ccc(CCCCn4ccnn4)cc3)co2)c(F)c1` [Compound 123, (E)-4-((4-(4-(1H-1,2,3-triazol-1-yl)butyl)phenoxy)methyl)-2-(2-fluoro-4-(methylsulfonyl)styryl)oxazole], the EC50 was 100 to 500 nM in the test with MLL-AF9 cells (MLL-AF9, 120 h) and 100 to 500 nM in the test on OCI-AML3 cells.
Regarding `Fc1cc(C(F)(F)F)ccc1/C=C/c1nc(COc2ccc(SCCn3ccnn3)cc2)co1` [Compound 147, (E)-4-((4-((2-(1H-1,2,3-triazol-1-yl)ethyl)thio)phenoxy)methyl)-2-(2-fluoro-4-(trifluoromethyl)styryl)oxazole], the EC50 in the test on MLL-AF9 cells (MLL-AF9, 120 h) is less than 50 nM; in the test on OCI-AML3 cells it was less than 50 nM.
Turning to `NCCc1cn(CCCCc2ccc(OCc3coc(/C=C/c4ccc(C(F)(F)F)cc4)n3)cc2)nn1` [Compound 13, (E)-2-(1-(4-(4-((2-(4-(trifluoromethyl)styryl)oxazol-4-yl)methoxy)phenyl)butyl)-1H-1,2,3-triazol-4-yl)ethanamine], the EC50 lay within 1000 to 10000 nM in the test with MLL-AF9 cells (MLL-AF9, 120 h) and 1000 to 10000 nM in the test on OCI-AML3 cells.
On to `C/C(=C\c1nc(COc2ccc(CCCCn3ccnn3)cc2)co1)c1ccc(C(F)(F)F)cc1` [Compound 74, (E)-4-((4-(4-(1H-1,2,3-triazol-1-yl)butyl)phenoxy)methyl)-2-(2-(4-(trifluoromethyl)phenyl)prop-1-en-1-yl)oxazole], for which the EC50 with MLL-AF9 cells (MLL-AF9, 120 h) is 100 to 500 nM; with OCI-AML3 cells, 1000 to 10000 nM.
On to `O=S1(=O)CCN(Cc2cnnn2CCCCc2ccc(OCc3coc(/C=C/c4ccc(C(F)(F)F)cc4)n3)cc2)CC1` [Compound 15, (E)-4-((1-(4-(4-((2-(4-(trifluoromethyl)styryl)oxazol-4-yl)methoxy)phenyl)butyl)-1H-1,2,3-triazol-5-yl)methyl)thiomorpholine 1,1-dioxide], for which the EC50 in the test with MLL-AF9 cells (MLL-AF9, 120 h) was 100 to 500 nM; with OCI-AML3 cells it was 500 to 1000 nM.
For `OCCCCc1cn(CCCCc2ccc(OCc3coc(/C=C/c4ccc(C(F)(F)F)cc4)n3)cc2)nn1` [Compound 5], the EC50 with MLL-AF9 cells (MLL-AF9, 120 h) fell in the range of 100 to 500 nM; in the test on OCI-AML3 cells it was 1000 to 10000 nM.
With `COC(=O)c1ccc(/C=C/c2nc(COc3ccc(CCCCn4ccnn4)cc3)co2)c(F)c1` [Compound 125, methyl (E)-4-(2-(4-((4-(4-(1H-1,2,3-triazol-1-yl)butyl)phenoxy)methyl)oxazol-2-yl)vinyl)-3-fluorobenzoate], the EC50 was 100 to 500 nM in the test with MLL-AF9 cells (MLL-AF9, 120 h) and 50 to 100 nM in the test on OCI-AML3 cells.
Take `C#CCCC(=O)NCCc1cn(CCCCc2ccc(OCc3coc(/C=C/c4ccc(C(F)(F)F)cc4)n3)cc2)nn1` [Compound 14, (E)-N-(2-(1-(4-(4-((2-(4-(trifluoromethyl)styryl)oxazol-4-yl)methoxy)phenyl)butyl)-1H-1,2,3-triazol-4-yl)ethyl)pent-4-ynamide]: the EC50 fell in the range of 500 to 1000 nM in the test on MLL-AF9 cells (MLL-AF9, 120 h) and 1000 to 10000 nM in the test on OCI-AML3 cells.

The term EC50 denotes the midpoint of the concentration-response curve.
